Earlier results in publication PMC10842190 (ACS sensors, 2023).

Tests used:
[1] = tested on: human cells
[2] = tested on: damaged collagen triple helices

| Compound | Toxicity to human cells [1] | Annealing to damaged collagen triple helices [2] |
| --- | --- | --- |
| O=C(O)[C@@H]1C[C@H](F)CN1 [H-flp-OH, (2S,4S)-4-fluoroproline] | not toxic |  |
| (Gly-Ser)2-Gly-(Hyp-flp-Gly)7 |  | cannot anneal |
| (Gly-Ser)2-Gly-(flp-Hyp-Gly)7 |  | can anneal |
